Experiments:
[1] = 101.33 kPa, Liquid; for mass density: Pycnometric method; for speed of sound: Linear variable-path acoustic interferometer
[2] = xn = mol fraction of the nth substance listed; conditions: 308.15 K, 101 kPa, Liquid; for excess molar volume: Direct dilatometry; for speed of sound: Linear variable-path acoustic interferometer
[3] = excess molar enthalpy (molar enthalpy of mixing); xn = mol fraction of the nth substance listed; conditions: 308.15 K, 101 kPa, Liquid, Calvet calorimetry

CCCO [propan-1-ol]
[1]
Conditions	mass density [kg/m3]	speed of sound [m/s]
298.15 K	799.28	–
308.15 K	–	1188.2

O=C1CCCN1 [2-pyrrolidinone] + CCCO
Conditions	excess molar enthalpy [kcal/mol]	excess molar volume [m3/mol]	speed of sound [m/s]
[2], x1 = 0.0349	–	-2.3e-08	–
[2], x1 = 0.0973	–	-6.7e-08	–
[2], x1 = 0.0982	–	–	1219.3
[2], x1 = 0.1436	–	-1e-07	–
[2], x1 = 0.158	–	–	1240.8
[2], x1 = 0.1968	–	–	1255
[2], x1 = 0.2052	–	-1.38e-07	–
[2], x1 = 0.2654	–	-1.75e-07	–
[2], x1 = 0.2958	–	–	1294.4
[2], x1 = 0.3299	–	-2.08e-07	–
[2], x1 = 0.3309	–	–	1308.9
[2], x1 = 0.3881	–	-2.27e-07	–
[2], x1 = 0.3952	–	–	1336.5
[2], x1 = 0.4485	–	–	1359.7
[2], x1 = 0.4495	–	-2.44e-07	–
[2], x1 = 0.4949	–	–	1380.7
[2], x1 = 0.521	–	–	1391.8
[2], x1 = 0.5246	–	-2.48e-07	–
[2], x1 = 0.5749	–	-2.46e-07	–
[2], x1 = 0.5951	–	–	1425.6
[2], x1 = 0.6516	–	-2.27e-07	–
[2], x1 = 0.6957	–	–	1470.7
[2], x1 = 0.7314	–	–	1485.7
[2], x1 = 0.7453	–	-1.85e-07	–
[2], x1 = 0.7968	–	–	1515.4
[2], x1 = 0.8357	–	-1.29e-07	–
[2], x1 = 0.8982	–	–	1558.4
[2], x1 = 0.9206	–	-6.5e-08	–
[3], x1 = 0.0592	0.0594	–	–
[3], x1 = 0.1085	0.0933	–	–
[3], x1 = 0.1966	0.135	–	–
[3], x1 = 0.2273	0.145	–	–
[3], x1 = 0.3287	0.161	–	–
[3], x1 = 0.3782	0.159	–	–
[3], x1 = 0.4394	0.155	–	–
[3], x1 = 0.495	0.146	–	–
[3], x1 = 0.5219	0.139	–	–
[3], x1 = 0.5951	0.125	–	–
[3], x1 = 0.6622	0.108	–	–
[3], x1 = 0.7539	0.0808	–	–
[3], x1 = 0.8065	0.068	–	–
[3], x1 = 0.8946	0.0396	–	–

O=C1CCCN1 [2-pyrrolidinone] + CCO
Conditions	excess molar enthalpy [kcal/mol]	excess molar volume [m3/mol]	speed of sound [m/s]
[2], x1 = 0.0767	–	-9.2e-08	–
[2], x1 = 0.0784	–	–	1172.9
[2], x1 = 0.1393	–	-1.72e-07	–
[2], x1 = 0.1607	–	–	1230.8
[2], x1 = 0.1763	–	-2.15e-07	–
[2], x1 = 0.1963	–	–	1252.8
[2], x1 = 0.2471	–	–	1282.9
[2], x1 = 0.2676	–	-3.07e-07	–
[2], x1 = 0.338	–	–	1327.2
[2], x1 = 0.3493	–	-3.68e-07	–
[2], x1 = 0.3876	–	–	1349.4
[2], x1 = 0.4016	–	-3.94e-07	–
[2], x1 = 0.4337	–	–	1366.5
[2], x1 = 0.4713	–	–	1381
[2], x1 = 0.4865	–	-4.16e-07	–
[2], x1 = 0.5347	–	–	1404.3
[2], x1 = 0.5479	–	-4.13e-07	–
[2], x1 = 0.5985	–	–	1427.8
[2], x1 = 0.6015	–	-3.94e-07	–
[2], x1 = 0.6412	–	–	1444.8
[2], x1 = 0.6573	–	-3.66e-07	–
[2], x1 = 0.7145	–	-3.21e-07	–
[2], x1 = 0.7539	–	–	1492.3
[2], x1 = 0.7982	–	-2.4e-07	–
[2], x1 = 0.8064	–	–	1518.1
[2], x1 = 0.856	–	-1.75e-07	–
[2], x1 = 0.8887	–	–	1559.4
[2], x1 = 0.92	–	-9.7e-08	–
[3], x1 = 0.0647	0.0643	–	–
[3], x1 = 0.1158	0.102	–	–
[3], x1 = 0.2075	0.14	–	–
[3], x1 = 0.2768	0.149	–	–
[3], x1 = 0.338	0.152	–	–
[3], x1 = 0.38	0.148	–	–
[3], x1 = 0.4337	0.14	–	–
[3], x1 = 0.5337	0.118	–	–
[3], x1 = 0.605	0.104	–	–
[3], x1 = 0.6856	0.0834	–	–
[3], x1 = 0.7539	0.0649	–	–
[3], x1 = 0.7929	0.0552	–	–
[3], x1 = 0.8436	0.0455	–	–
[3], x1 = 0.8904	0.0312	–	–

CC(C)O [propan-2-ol]
[1], 298.15 K
Conditions	mass density [kg/m3]	speed of sound [m/s]
–	780.98	1135.9

O=C1CCCN1 [2-pyrrolidinone] + CC(C)O
Conditions	excess molar enthalpy [kcal/mol]	excess molar volume [m3/mol]	speed of sound [m/s]
[2], x1 = 0.0825	–	-9.8e-08	–
[2], x1 = 0.0835	–	–	1144.9
[2], x1 = 0.1311	–	-1.54e-07	–
[2], x1 = 0.1329	–	–	1166.9
[2], x1 = 0.1719	–	-1.97e-07	–
[2], x1 = 0.1976	–	–	1196.8
[2], x1 = 0.2365	–	-2.59e-07	–
[2], x1 = 0.2597	–	–	1225.6
[2], x1 = 0.2949	–	-3.07e-07	–
[2], x1 = 0.3244	–	–	1256
[2], x1 = 0.348	–	-3.36e-07	–
[2], x1 = 0.3815	–	–	1283.5
[2], x1 = 0.4267	–	-3.69e-07	–
[2], x1 = 0.4394	–	–	1311.6
[2], x1 = 0.4756	–	-3.81e-07	–
[2], x1 = 0.5031	–	–	1343.3
[2], x1 = 0.5682	–	–	1376.4
[2], x1 = 0.5684	–	-3.74e-07	–
[2], x1 = 0.6159	–	–	1401.1
[2], x1 = 0.6315	–	-3.51e-07	–
[2], x1 = 0.6879	–	–	1439.2
[2], x1 = 0.6921	–	-3.17e-07	–
[2], x1 = 0.7193	–	-2.98e-07	–
[2], x1 = 0.765	–	–	1479.9
[2], x1 = 0.8048	–	-2.29e-07	–
[2], x1 = 0.8223	–	–	1511.6
[2], x1 = 0.8941	–	-1.33e-07	–
[2], x1 = 0.9042	–	–	1553.8
[3], x1 = 0.0841	0.11	–	–
[3], x1 = 0.1776	0.187	–	–
[3], x1 = 0.2315	0.21	–	–
[3], x1 = 0.334	0.226	–	–
[3], x1 = 0.3758	0.227	–	–
[3], x1 = 0.4453	0.218	–	–
[3], x1 = 0.501	0.206	–	–
[3], x1 = 0.6009	0.175	–	–
[3], x1 = 0.6811	0.144	–	–
[3], x1 = 0.7151	0.129	–	–
[3], x1 = 0.7626	0.111	–	–
[3], x1 = 0.8338	0.0822	–	–
[3], x1 = 0.8794	0.0634	–	–
[3], x1 = 0.9223	0.0429	–	–

O=C1CCCN1 [2-pyrrolidinone] + CCCCO
Conditions	excess molar enthalpy [kcal/mol]	excess molar volume [m3/mol]	speed of sound [m/s]
[2], x1 = 0.0632	–	–	1237.1
[2], x1 = 0.0883	–	-6.5e-08	–
[2], x1 = 0.1021	–	-7.6e-08	–
[2], x1 = 0.1176	–	–	1245.9
[2], x1 = 0.186	–	–	1262.9
[2], x1 = 0.2306	–	–	1276.6
[2], x1 = 0.2423	–	-1.47e-07	–
[2], x1 = 0.3298	–	-1.72e-07	–
[2], x1 = 0.3394	–	–	1315.9
[2], x1 = 0.3954	–	–	1338.2
[2], x1 = 0.4003	–	-1.87e-07	–
[2], x1 = 0.4442	–	–	1359
[2], x1 = 0.4536	–	-1.9e-07	–
[2], x1 = 0.4825	–	–	1374.9
[2], x1 = 0.497	–	-1.92e-07	–
[2], x1 = 0.5269	–	-1.88e-07	–
[2], x1 = 0.5453	–	–	1402
[2], x1 = 0.5702	–	–	1412.4
[2], x1 = 0.5855	–	-1.83e-07	–
[2], x1 = 0.6229	–	-1.76e-07	–
[2], x1 = 0.6427	–	–	1441.1
[2], x1 = 0.7154	–	-1.53e-07	–
[2], x1 = 0.7367	–	–	1478
[2], x1 = 0.7617	–	-1.36e-07	–
[2], x1 = 0.8275	–	–	1512.6
[2], x1 = 0.8382	–	-1.02e-07	–
[2], x1 = 0.8826	–	-7.7e-08	–
[2], x1 = 0.9152	–	–	1551
[3], x1 = 0.0824	0.0833	–	–
[3], x1 = 0.1933	0.155	–	–
[3], x1 = 0.2472	0.174	–	–
[3], x1 = 0.3241	0.193	–	–
[3], x1 = 0.3748	0.195	–	–
[3], x1 = 0.4183	0.195	–	–
[3], x1 = 0.4734	0.191	–	–
[3], x1 = 0.5451	0.178	–	–
[3], x1 = 0.5725	0.17	–	–
[3], x1 = 0.6427	0.151	–	–
[3], x1 = 0.7058	0.127	–	–
[3], x1 = 0.7499	0.112	–	–
[3], x1 = 0.8571	0.0658	–	–
[3], x1 = 0.9247	0.0365	–	–

O=C1CCCN1 [2-pyrrolidinone]
[1]
Conditions	mass density [kg/m3]	speed of sound [m/s]
298.15 K	1107.26	–
308.15 K	–	1603

CCO [ethanol]
[1]
Conditions	mass density [kg/m3]	speed of sound [m/s]
298.15 K	785.08	–
308.15 K	–	1112

CCCCO [butan-1-ol]
[1]
Conditions	mass density [kg/m3]	speed of sound [m/s]
298.15 K	809.5	–
308.15 K	–	1232.2

Source: the NIST ThermoML archive (doi:10.1016/j.tca.2009.03.014)
